From patent US5399562A, “Indolones useful as serotonergic agents” (G. D. Searle & Co., priority 1994, dated 1995)
Where a name gives a salt, the structure may show the parent alone. Values belong to the molecule of their own block, whether it stands above or below them.

Key:
5-HT4 receptor [1] = molecular target: 5-HT4 receptor (Rattus norvegicus, UniProt Q62758); experiment: cell-based; details: rat esophagus TMM contracted with carbachol (3 μM), 37° C., cumulative addition; read-out: 5-HT4 Agonism (Rat TMM) In Vitro Assay: EC50 values
5-HT4 receptor (Rattus norvegicus, UniProt Q62758), sequence (Q62758 whole entry): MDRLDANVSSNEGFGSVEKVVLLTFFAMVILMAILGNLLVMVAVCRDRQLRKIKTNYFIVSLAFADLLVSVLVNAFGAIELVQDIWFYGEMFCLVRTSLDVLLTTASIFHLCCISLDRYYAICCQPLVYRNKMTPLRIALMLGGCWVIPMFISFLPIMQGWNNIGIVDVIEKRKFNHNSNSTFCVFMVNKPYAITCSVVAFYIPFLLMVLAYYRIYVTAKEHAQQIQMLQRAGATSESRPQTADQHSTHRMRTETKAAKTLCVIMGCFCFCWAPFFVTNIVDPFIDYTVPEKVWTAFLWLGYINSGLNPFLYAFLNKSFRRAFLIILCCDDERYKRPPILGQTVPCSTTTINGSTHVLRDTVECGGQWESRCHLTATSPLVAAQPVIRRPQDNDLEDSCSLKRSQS
Experimental: (§1) The 5-HT4 agonist activity was determined in the in vitro rat tunica muscularis mucosae (TMM) assay described herein. (Baxter et al., Naunyn Schmied Arch. Pharmacol, 1991, 343, 439). […] One with skill in the art could determine the activity of the compounds of the present invention using the methodology of these assays, described herein, without undue experimentation.
Agonist activity was determined utilizing relaxation of carbachol-contracted rat tunica muscularis mucosae (TMM). One 2 cm segment of intrathoracic esophagus proximal to the diaphragm was removed from male rats, weighing approximately 300 gm, and the outer muscle layers removed. The inner tunica muscularis mucosa was mounted under 0.2-0.3 g of tension in a tissue bath containing oxygenated Tyrode's solution at 37° C. […] Following a 30 min equilibrium period, tissues were isometrically contracted with carbachol (3 μM) to obtain a tonic contraction. A stable plateau was obtained within 20 min when test compound was added cumulatively to relax the muscle strip. EC50 values were obtained for each compound in tissues from 5 rats.

5-HT4 receptors = details: Craig and Clarke; cited from earlier work
5-HT4 receptor [2] = details: Dumuis et al. 1989, mouse embryonic colliculi neurons; cited from earlier work
myenteric neurons = details: Nemeth and Gullikson 1989; cited from earlier work
dogs = details: cited from earlier work; for antroduodenal motility in dogs: Van Nueten et al. 1989
5-HT3 receptor = molecular target: T1, 5-HT3 receptor (Rattus norvegicus, UniProt P35563); experiment: 5-HT3 radioligand receptor binding assay ([3H]-GR65630), rat brain cortex membranes
T1 construct: Brain cortices were obtained from male rats and a membrane fraction prepared by standard techniques; from tissue; host or cells: male rat brain cortex membranes
T1 sequence (P35563 24-483): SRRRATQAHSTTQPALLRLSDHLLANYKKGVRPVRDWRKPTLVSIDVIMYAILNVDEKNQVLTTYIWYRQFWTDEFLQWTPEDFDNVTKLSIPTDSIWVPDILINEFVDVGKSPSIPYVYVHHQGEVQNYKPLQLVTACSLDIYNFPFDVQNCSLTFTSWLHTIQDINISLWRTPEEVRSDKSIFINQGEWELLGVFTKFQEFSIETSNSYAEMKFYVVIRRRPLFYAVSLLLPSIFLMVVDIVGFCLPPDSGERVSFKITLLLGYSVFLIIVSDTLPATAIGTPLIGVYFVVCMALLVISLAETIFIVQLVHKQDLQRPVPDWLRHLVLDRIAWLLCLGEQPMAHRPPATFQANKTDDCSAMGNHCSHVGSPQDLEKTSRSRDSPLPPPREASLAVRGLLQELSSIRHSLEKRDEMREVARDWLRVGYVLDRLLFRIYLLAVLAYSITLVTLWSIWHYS
Experimental: as §1
Procedure: GR65630 binds to the 5-HT3 receptor. Brain cortices were obtained from male rats and a membrane fraction prepared by standard techniques. 0.04 mg of membrane prep was incubated with 0.2 nM [^3 H]-GR65630 for 66 minutes at 22° C. […] Membranes were filtered and washed 3 times and the filters were counted to determine [^3 H]-GR65630 specifically bound. [Kilpatrick GJ, Jones BJ and Tyers MB, Identification and Distribution of 5-HT3 Receptors in Rat Brain Using Radioligand Binding Assay, Nature, 330, 746-748 (1987)].

man [3] = details: Talley et al. 1989, man; cited from earlier work
man [4] = details: Gore et al. 1990, man; cited from earlier work
gastric emptying [5] = details: Gidda et al. 1988; cited from earlier work
[6] = system: guinea pig stomach muscle strips; details: cited from earlier work; for guinea pig stomach muscle strip contraction in vitro: Buchheit et al. 1985
gastric emptying [7] = details: Buchheit et al. 1985; cited from earlier work
GI tract = details: various animal models; cited from earlier work
5-HT3 = details: in vivo; cited from earlier work

- EC50 (5-HT4 receptor [1]): > 10000 nM
SMILES: CC1(C)C(=O)N(C(=O)NC[C@@H]2CCN3CCC[C@@H]23)c2ccccc21 (relative stereo) [Example 8, Exo-2,3-dihydro-3,3-dimethyl-N-[(hexahydro-1H-pyrrolizin-1S-yl)methyl]-2-oxo-1H-indole-1carboxamide, hydrate hydrochloride]

SMILES: COc1cc(N)c(Cl)cc1C(=O)NC1CCN2CCCC1C2 (centres unmarked) [BRL-24924]
- peristaltic reflex evoked, receptor mechanism (5-HT4 receptors): mediated through agonism at 5-HT4 receptors
- prokinetic activity, correlation with agonist activity at 5-HT4 receptor (5-HT4 receptor [2]): correlate with agonist activity
- ability to depolarize myenteric neurons, relation to 5-HT3 antagonism (myenteric neurons): unrelated to their properties of 5-HT3 antagonism

SMILES: COc1cc(N)c(Cl)cc1C(=O)NC1CCN(CCCOc2ccc(F)cc2)CC1OC (centres unmarked) [Cisapride]
- antroduodenal motility in dogs (dogs): enhanced
- prokinetic activity, correlation with agonist activity at 5-HT4 receptor (5-HT4 receptor [2]): correlate with agonist activity
- ability to depolarize myenteric neurons, relation to 5-HT3 antagonism (myenteric neurons): unrelated to their properties of 5-HT3 antagonism

SMILES: CN1[C@@H]2CC[C@H]1C[C@@H](NC(=O)N1C(=O)C(C)(C)c3ccccc31)C2 [Example 1, Endo-2,3-dihydro-3,3-dimethyl-N-(8-methyl-8-azabicyclo[3.2.1]octan-3-yl)-2-oxo-1H-indole-1-carboxamide, hydrochloride hydrate]
- Ki (5-HT3 receptor): 4 nM
- EC50 (5-HT4 receptor [1]): 1210 nM

SMILES: CN1[C@@H]2CC[C@H]1C[C@@H](NC(=O)N1C(=O)C3(CC3)c3ccccc31)C2 [Example 2, Endo-1',2'-dihydro-N-(8-methyl-8-azabicyclo[3.2.1 octan-3-yl)-2'-oxo-spiro[cyclopropane-1,3'-(3'H)-indole]-1'-carboxamide, hydrate hydrochloride]
- Ki (5-HT3 receptor): 4.1 nM
- EC50 (5-HT4 receptor [1]): 790 nM

- EC50 (5-HT4 receptor [1]): 2220 nM
SMILES: O=C(N[C@@H]1[C@@H]2CC3C[C@H]1CN(C3)C2)N1C(=O)C2(CC2)c2ccccc21 [Example 3, Anti-N-(1-azatricyclo[3.3.1.1^3,7]decan-4-yl)-2'-oxo-spiro[cyclopropane-1,3'-[3'H]indole]-1'(2'H)-carboxamide, monohydrochloride]

- EC50 (5-HT4 receptor [1]): 2530 nM
SMILES: O=C(N[C@H]1[C@@H]2CC3C[C@H]1CN(C3)C2)N1C(=O)C2(CC2)c2ccccc21 [Example 4, Syn-N-(1-azatricyclo[3.3.1.1^3,7]decan-4-yl)-2'-oxo-spiro[cyclopropane-1,3'-[3'H]indole]-1'(2'H)-carboxamide, monohydrochloride]

SMILES: O=C(NCC12CCN(CC1)CC2)N1C(=O)C2(CC2)c2ccccc21 [Example 5, N-(1-azabicyclo[2.2.2]octan-4-ylmethyl)-2'-oxo-spiro[cyclopropane-1,3'-[3'H]indole]-1'(2'H)-carboxamide, monohydrochloride]
- EC50 (5-HT4 receptor [1]): > 10000 nM

- EC50 (5-HT4 receptor [1]): > 10000 nM
SMILES: O=C(NCC12CCCN1CCC2)N1C(=O)C2(CC2)c2ccccc21 [Example 6, 2'-oxo-N-[(hexahydro-1H-pyrrolizin-7a(5H)-yl)-methyl]spiro[cyclopropane-1,3'-[3'H]indole]1'(2'H)carboxamide, monohydrochloride]

- EC50 (5-HT4 receptor [1]): 7920 nM
SMILES: O=C(NCCC12CCCN1CCC2)N1C(=O)C2(CC2)c2ccccc21 [Example 7, 2'-oxo-N-[2-(hexahydro-1H-pyrrolizin-7a(5H)yl)ethyl]spiro[cyclopropane-1,3'-[3'H]indole-1'(2'H)-carboxamide, monohydrochloride]

SMILES: Cc1nccn1CC1CCc2c(c3ccccc3n2C)C1=O (centres unmarked) [GR38032]
- effect on GI transit in man (conclusion) (man [3]): does not have a major effect on GI transit in man
- mouth-to-cecum transit times (man [3]): did not alter
- small intestinal transit times (man [3]): did not alter
- GI transit (man [4]): failed to accelerate
- colonic transit in man (man [4]): slowed
- gastric emptying (gastric emptying [5]): enhanced

SMILES: Cc1[nH]cnc1CCC(=O)c1cn(C)c2ccccc12 [GR65630]
- Bmax (5-HT3 receptor; [3H]-GR65630 radioligand, rat brain cortex membranes): 154 fmol/mg protein
- % Specific Binding (5-HT3 receptor; [3H]-GR65630 radioligand, non-specific binding with 1 uM ICS 205-930): 70%

SMILES: CN1[C@@H]2CC[C@H]1C[C@@H](OC(=O)c1c[nH]c3ccccc13)C2 [ICS 205-930]
- effect on responses to cisapride when coadministered (dogs; Van Nueten et al. 1989, coadministered with cisapride): did not affect
- antroduodenal motility in dogs (dogs): did not
- guinea pig stomach muscle strip contraction in vitro [6]: enhanced
- gastric emptying (gastric emptying [5]): enhanced
- gastric emptying rates in vivo (gastric emptying [7]): increases

SMILES: CN1[C@@H]2CC[C@H]1C[C@@H](OC(=O)c1cc(Cl)cc(Cl)c1)C2 [MDL 72222]
- guinea pig stomach muscle strip contraction in vitro [6]: enhanced
- gastric emptying rates in vivo (gastric emptying [7]): increases

SMILES: NCCc1c[nH]c2ccc(O)cc12 [Serotonin, 5-hydroxytryptamine]
- peristaltic reflex evoked, receptor mechanism (5-HT4 receptors): mediated through agonism at 5-HT4 receptors
- peristalsis in the GI tract (GI tract): promote peristalsis

SMILES: CCN(CC)CCNC(=O)c1cc(Cl)c(N)cc1OC [metoclopramide]
- 5-HT3-mediated Bezold Jarisch reflex (5-HT3): blocks
- guinea pig stomach muscle strip contraction in vitro [6]: enhanced
- electrical-field stimulated contractions in guinea pig stomach strips ([6]; Gunning and Naylor 1985): enhanced
- gastric emptying rates in vivo (gastric emptying [7]): increases

SMILES: COc1cc(N)c(Cl)cc1C(=O)NC1CN2CCC1CC2 (centres unmarked) [zacopride]
- gastric emptying (gastric emptying [5]): enhanced
